From ChEMBL document CHEMBL1131502, “Thiol-induced nitric oxide release from 3-halogeno-3,4-dihydrodiazete 1,2-dioxides” (J Med Chem, 1998)

Key:
Homo sapiens = species on record: Homo sapiens; assay: The compound was tested for half-maximum inhibition of platelet aggregation; assay type: functional
[1] = apparent rate constant value of the compound; assay type: ADME
[2] = The compound was tested for the concentration to reduce the viability of bovine aortic endothelial cell by 50% within 24 hr after compound addition.; assay type: functional, cell-based; conditions: Bos taurus

| SMILES | IC50 (Homo sapiens) | rate constant app [1] | IC50 [2] |
| --- | --- | --- | --- |
| CC12CCCCC1(Br)[N+]([O-])=[N+]2[O-] (stereo not drawn) | 1 µM | 0.072 M⁻¹ s⁻¹ | 230 µM |
| CC1(C)[N+]([O-])=[N+]([O-])C1(C)Br (stereo not drawn) | 10 µM | 0.052 M⁻¹ s⁻¹ | 1400 µM |
| CC12CCCCC1(Cl)[N+]([O-])=[N+]2[O-] (stereo not drawn) |  | 0.0033 M⁻¹ s⁻¹ | > 6000 µM |
